Results reported in patent US9695155B2, “Herbicidal substituted pyrimidinyloxy benzene compounds” (E. I. DU PONT DE NEMOURS AND COMPANY, priority 2013, dated 2017).
Read-outs that look alike come from different tables or passages of the source.

How the values were obtained:
[1] = tested on: Italian ryegrass; assay: Test A postemergence; type: in vivo, Lolium multiflorum
Method in brief: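 Visual 0–100 rating (100 = complete control) taken about 10 d post-treatment relative to untreated checks. Preemergence: directed soil spray on sown loam/sand pots. Postemergence: seedlings 2–10 cm, 1–2 leaf. Non-phytotoxic solvent formulation with surfactant.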

[2] = tested on: corn; assay: Test C preemergence; type: in vivo, Zea mays; details: for plant injury at 16 g/ha / plant injury at 125 g/ha / Corn plant response rating / plant injury at 62 g/ha: preemergence; for plant injury at 16 g/ha / plant injury at 125 g/ha / plant injury at 62 g/ha: read-out: Corn plant response rating
From the text: (§1) Seeds of plant species selected from blackgrass (Alopecurus myosuroides), Italian ryegrass (Lolium multiflorum), wheat, winter (winter wheat, Triticum aestivum), galium (catchweed bedstraw, Galium aparine), corn (Zea mays), large (Lg) crabgrass (Digitaria sanguinalis), giant foxtail (Setaria faberii), johnsongrass (Sorghum halepense), lambsquarters (Chenopodium album), morningglory (Ipomoea coccinea), yellow nutsedge (Cyperus esculentus), pigweed (Amaranthus retroflexus), ragweed (common ragweed, Ambrosia elatior), soybean (Glycine max), barnyardgrass (Echinochloa crus-galli), oilseed rape (Brassica napus), waterhemp (common waterhemp, Amaranthus rudis), kochia (Kochia scoparia), wild oat (Avena fatua), surinam grass (Brachiaria decumbens), foxtail, green (green foxtail, Setaria viridis), goosegrass (Eleusine indica), bromegrass, downy (downy bromegrass, Bromus tectorum), nightshade (eastern black nightshade, Solanum ptycanthum), cocklebur (common cocklebur, Xanthium strumarium), cupgrass, woolly (woolly cupgrass, Eriochloa villosa), bermudagrass (Cynodon dactylon), sunflower, (common oilseed sunflower, Helianthus annuus), Russian thistle (Salsola kali), and velvetleaf (Abutilon theophrasti) were planted into a blend of loam soil and sand and treated preemergence with test chemicals formulated in a non-phytotoxic solvent mixture which included a surfactant.
(§2) At the same time, plants selected from these crop and weed species and also barley, winter (winter barley, Hordeum vulgare), windgrass (Apera spica-venti), chickweed (common chickweed, Stellaria media), deadnettle (henbit deadnettle, Lamium amplexicaule), and canarygrass (littleseed canarygrass, Phalaris minor) were planted in pots containing Redi-Earth® planting medium (Scotts Company, 14111 Scottslawn Road, Marysville, Ohio 43041) comprising spaghnum peat moss, vermiculite, wetting agent and starter nutrients and treated with postemergence applications of test chemicals formulated in the same manner. Plants ranged in height from 2 to 18 cm (1- to 4-leaf stage) for postemergence treatments. Treated plants and controls were maintained in a greenhouse for 13 to 15 days, after which time all species were compared to controls and visually evaluated. Plant response ratings, summarized in Table C, are based on a scale of 0 to 100 where 0 is no effect and 100 is complete control. A dash (-) response means no test result.

[3] = tested on: morningglory; assay: Test C preemergence; type: in vivo, Ipomoea coccinea
From the text: as §1, §2

[4] = 31 g ai/ha, 0 to 100 scale, 0 no effect, 100 complete control
[5] = 125 g ai/ha, 0 to 100 scale where 0 is no effect and 100 is complete control
[6] = 125 g ai/ha, 0 to 100 scale, 0 no effect, 100 complete control
[7] = Zea mays, pre-emergence, 16 g ai/ha, scale 0 to 100 (0 no effect, 100 complete control)
[8] = Zea mays, pre-emergence, 125 g ai/ha, scale 0 (no effect) to 100 (complete control)
[9] = Ipomoea, pre-emergence, 16 g ai/ha, preemergence, scale 0 to 100 (0 no effect, 100 complete control), read-out: Morningglory plant response rating
[10] = Ipomoea, pre-emergence, 125 g ai/ha, preemergence, scale 0 (no effect) to 100 (complete control), read-out: Morningglory plant response rating
[11] = 500 g ai/ha, 0 to 100 scale where 0 is no effect and 100 is complete control
[12] = 16 g ai/ha, scale 0 to 100 (0 no effect, 100 complete control)
[13] = 125 g ai/ha, scale 0 (no effect) to 100 (complete control)
[14] = Preemergence, 62 g ai/ha, scale 0 to 100, 0 no effect, 100 complete control
[15] = 16 g ai/ha, preemergence, scale 0 to 100 (0 no effect, 100 complete control)
[16] = 125 g ai/ha, preemergence, scale 0 (no effect) to 100 (complete control)
[17] = 62 g ai/ha, scale 0 (no effect) to 100 (complete control)
[18] = Preemergence, 31 g ai/ha, scale 0 to 100, 0 no effect, 100 complete control
[19] = 62 g ai/ha, preemergence, scale 0 (no effect) to 100 (complete control)
[20] = Zea mays, pre-emergence, 62 g ai/ha, scale 0 (no effect) to 100 (complete control)
[21] = Zea mays, pre-emergence, Preemergence, 31 g ai/ha, scale 0 to 100, 0 no effect, 100 complete control
[22] = Ipomoea, pre-emergence, 62 g ai/ha, preemergence, scale 0 (no effect) to 100 (complete control), read-out: Morningglory plant response rating
[23] = 1000 g ai/ha, 0 to 100 scale, 0 no effect, 100 complete control

## FCc1cccc(Oc2ncc(F)cn2)c1-n1cc(I)cn1 [Compound 152]
[1]; [4]
  Plant response rating, Ryegrass, Italian: 0
[1]; [5]
  Ryegrass, Italian plant response rating: 20

## N#Cc1cccc(Oc2ncc(Cl)cn2)c1-n1cc(C(F)F)cn1 [Compound 253, 3-(5-chloropyrimidin-2-yl)oxy-2-[4-(difluoromethyl)-1H-pyrazol-1-yl]benzonitrile]
[1]; [4]
  Plant response rating, Ryegrass, Italian: 0
[1]; [6]
  Plant response rating, Ryegrass, Italian: 50
[2]; [7]
  plant injury at 16 g/ha: 0%
[2]; [8]
  plant injury at 125 g/ha: 90%
[2]; Zea mays, pre-emergence, Preemergence, 62 g ai/ha, scale 0 to 100, 0 no effect, 100 complete control
  Corn plant response rating (crop injury, 0 = no effect, 100 = complete kill) at 62 g/ha: 35%
[3]; [9]
  pest or weed control at 16 g/ha: 40%
[3]; [10]
  pest or weed control at 125 g/ha: 100%
[3]; Ipomoea, pre-emergence, Preemergence, 62 g ai/ha, scale 0 to 100, 0 no effect, 100 complete control, read-out: Plant response rating, Morningglory
  pest or weed control at 62 g/ha: 98%

## N#Cc1cnn(-c2c(Oc3ncc(F)cn3)cccc2C(F)F)c1 [Compound 240]
[1]; [6]
  Plant response rating, Ryegrass, Italian: 40
[1]; [11]
  Plant response rating, Ryegrass, Italian: 100
[2]; [12]
  Corn plant response rating: 5
[2]; [13]
  Corn plant response rating: 35
[2]; [14]
  Plant response rating, Corn: 5
[3]; [15]
  Morningglory plant response rating: 15
[3]; [16]
  Morningglory plant response rating: 75
[3]; [14]
  Plant response rating, Morningglory: 75

## N#Cc1cnn(-c2c(C#N)cccc2Oc2ncc(Br)cn2)c1 [Compound 135]
[1]; [5]
  Ryegrass, Italian plant response rating: 20
[1]; [11]
  Plant response rating, Ryegrass, Italian: 70
[2]; 8 g ai/ha, scale 0 to 100 (0 no effect, 100 complete control)
  Corn plant response rating: 5
[2]; [12]
  Corn plant response rating: 10
[2]; [17]
  Corn plant response rating: 30
[2]; [18]
  Plant response rating, Corn: 5
[3]; 8 g ai/ha, preemergence, scale 0 to 100 (0 no effect, 100 complete control)
  Morningglory plant response rating: 5
[3]; [15]
  Morningglory plant response rating: 50
[3]; [19]
  Morningglory plant response rating: 80
[3]; [18]
  Plant response rating, Morningglory: 50

## FC(F)Oc1cnn(-c2c(Cl)cccc2Oc2ncc(Cl)cn2)c1 [Compound 258]
[1]; [4]
  Plant response rating, Ryegrass, Italian: 0
[1]; [6]
  Plant response rating, Ryegrass, Italian: 20
[2]; [12]
  Corn plant response rating: 0
[2]; [13]
  Corn plant response rating: 65
[2]; [14]
  Plant response rating, Corn: 45
[3]; [15]
  Morningglory plant response rating: 10
[3]; [16]
  Morningglory plant response rating: 98
[3]; [14]
  Plant response rating, Morningglory: 45

## CC(C)c1cnn(-c2c(C#N)cccc2Oc2ncc(Cl)cn2)c1 [Compound 85]
[1]; [5]
  Plant response rating, Ryegrass, Italian: 60
[1]; [11]
  Plant response rating, Ryegrass, Italian: 100
[2]; [12]
  Corn plant response rating: 5
[2]; [17]
  Corn plant response rating: 5
[2]; [13]
  Corn plant response rating: 45
[2]; [18]
  Plant response rating, Corn: 10
[3]; [15]
  Morningglory plant response rating: 0
[3]; [19]
  Morningglory plant response rating: 0
[3]; [16]
  Morningglory plant response rating: 20
[3]; [18]
  Plant response rating, Morningglory: 0

## Clc1cnc(Oc2cccc(Br)c2-n2cc(I)nn2)nc1 [Compound 117]
[1]; [11]
  Plant response rating, Ryegrass, Italian: 90

## Fc1cccc(Oc2ncc(Cl)cn2)c1-n1cc(C(F)F)nn1 [Compound 141, 5-chloro-2-[2-[4-(difluoromethyl)-1H-1,2,3-triazol-1-yl]-3-fluorophenoxy]pyrimidine]
[1]; [4]
  Plant response rating, Ryegrass, Italian: 60
[1]; [5]
  Ryegrass, Italian plant response rating: 80
[2]; [7]
  plant injury at 16 g/ha: 5%
[2]; [20]
  plant injury at 62 g/ha: 80%
[2]; [8]
  plant injury at 125 g/ha: 90%
[2]; [21]
  Corn plant response rating (crop injury, 0 = no effect, 100 = complete kill) at 31 g/ha: 20%
[3]; [9]
  pest or weed control at 16 g/ha: 75%
[3]; [22]
  pest or weed control at 62 g/ha: 100%
[3]; [10]
  pest or weed control at 125 g/ha: 100%

## N#Cc1cccc(Oc2ncc(Cl)cn2)c1-n1cc(SC(F)(F)F)cn1 [Compound 134, 3-[(5-chloro-2-pyrimidinyl)oxy]-2-[4-(trifluoromethylthio)-1-pyrazolyl]benzonitrile]
[1]; [5]
  Ryegrass, Italian plant response rating: 50
[1]; [11]
  Plant response rating, Ryegrass, Italian: 100
[2]; [7]
  plant injury at 16 g/ha: 0%
[2]; [20]
  plant injury at 62 g/ha: 40%
[2]; [8]
  plant injury at 125 g/ha: 40%
[2]; [21]
  Corn plant response rating (crop injury, 0 = no effect, 100 = complete kill) at 31 g/ha: 30%
[3]; [9]
  pest or weed control at 16 g/ha: 5%
[3]; [22]
  pest or weed control at 62 g/ha: 35%
[3]; [10]
  pest or weed control at 125 g/ha: 40%
[3]; Ipomoea, pre-emergence, Preemergence, 31 g ai/ha, scale 0 to 100, 0 no effect, 100 complete control, read-out: Plant response rating, Morningglory
  pest or weed control at 31 g/ha: 20%

## FC(F)c1cn(-c2ccccc2Oc2ncc(Cl)cn2)nn1 [Compound 147, 5-chloro-2-[2-[4-(difluoromethyl)-1H-1,2,3-triazol-1-yl]phenoxy]pyrimidine]
[1]; [5]
  Ryegrass, Italian plant response rating: 70
[1]; [11]
  Plant response rating, Ryegrass, Italian: 90
[2]; [7]
  plant injury at 16 g/ha: 0%
[2]; [20]
  plant injury at 62 g/ha: 20%
[2]; [8]
  plant injury at 125 g/ha: 35%
[2]; [21]
  Corn plant response rating (crop injury, 0 = no effect, 100 = complete kill) at 31 g/ha: 0%
[3]; [9]
  pest or weed control at 16 g/ha: 40%
[3]; [22]
  pest or weed control at 62 g/ha: 95%
[3]; [10]
  pest or weed control at 125 g/ha: 100%

## FCc1cn(-c2ccccc2Oc2ncc(Cl)cn2)nn1 [Compound 123]
[1]; [23]
  Plant response rating, Ryegrass, Italian: 90

## N#Cc1cnn(-c2c(Br)cccc2Oc2ncc(Cl)cn2)c1 [Compound 140]
[1]; [4]
  Plant response rating, Ryegrass, Italian: 0
[1]; [5]
  Ryegrass, Italian plant response rating: 30

## Clc1cnc(Oc2ccccc2-n2cc(C3CC3)nn2)nc1 [Compound 160, 5-chloro-2-[2-(4-cyclopropyl-1H-1,2,3-triazol-1-yl)phenoxy]pyrimidine]
[1]; [23]
  Plant response rating, Ryegrass, Italian: 90

## N#Cc1cn(-c2c(C#N)cccc2Oc2ncc(Cl)cn2)nn1 [Compound 273]
[1]; [6]
  Plant response rating, Ryegrass, Italian: 50
[1]; [11]
  Plant response rating, Ryegrass, Italian: 80
[2]; [12]
  Corn plant response rating: 0
[2]; [13]
  Corn plant response rating: 35
[2]; [14]
  Plant response rating, Corn: 45
[3]; [15]
  Morningglory plant response rating: 5
[3]; [16]
  Morningglory plant response rating: 85
[3]; [14]
  Plant response rating, Morningglory: 55

## Fc1cnc(Oc2cccc(C(F)F)c2-n2cc(Cl)cn2)nc1 [Compound 94]
[2]; [12]
  Corn plant response rating: 5
[2]; [17]
  Corn plant response rating: 5
[2]; [13]
  Corn plant response rating: 55
[2]; [18]
  Plant response rating, Corn: 5
[3]; [15]
  Morningglory plant response rating: 0
[3]; [19]
  Morningglory plant response rating: 40
[3]; [16]
  Morningglory plant response rating: 90
[3]; [18]
  Plant response rating, Morningglory: 30

## N#Cc1cccc(Oc2ncc(Cl)cn2)c1-n1cc(OC(F)F)cn1 [Compound 97]
[2]; [12]
  Corn plant response rating: 0
[2]; [17]
  Corn plant response rating: 45
[2]; [13]
  Corn plant response rating: 80
[2]; [18]
  Plant response rating, Corn: 5
[3]; [15]
  Morningglory plant response rating: 40
[3]; [19]
  Morningglory plant response rating: 100
[3]; [16]
  Morningglory plant response rating: 100
[3]; [18]
  Plant response rating, Morningglory: 98

## FCc1cccc(Oc2ncc(Cl)cn2)c1-n1cc(I)cn1 [Compound 245]
[1]; [4]
  Plant response rating, Ryegrass, Italian: 0
[1]; [6]
  Plant response rating, Ryegrass, Italian: 20
